Values of other authors, collected in patent US20090012066A1, “Method of Use of Deacetylase Inhibitors” (Novartis AG, priority 2005, published 2009).

Legend:
[1] = tested on: cardiac hypertrophy in transgenic mice that over-express Hop; conditions: transgenic mice over-expressing Hop; Kook et al. 2003
[2] = tested on: hypertrophy induced by infusion of isoproterenol

CC(/C=C/C(=O)NO)=C\[C@@H](C)C(=O)c1ccc(N(C)C)cc1 [trichostatin A]
effect on cardiac hypertrophy [1]: prevents cardiac hypertrophy
effect on hypertrophy induced by infusion of isoproterenol [2]: attenuates hypertrophy
